The results in this text go back to article PMC8126241, “Active Components from Cassia abbreviata Prevent HIV-1 Entry by Distinct Mechanisms of Action” (International Journal of Molecular Sciences, 2021).

Read-outs that look alike come from different tables or passages of the source.

The test system of data set [1] is non-B HIV-1 primary clinical isolate #1. Description: microbe, parasite or virus in culture. As to conditions: Human immunodeficiency virus 1, PBMC, 168 h, read-out: IC50 Clinical isolate #1.
Data set [2] relates to HIV-1 ADA-M. Description: microbe, parasite or virus in culture. As to conditions: Human immunodeficiency virus 1, PBMC, 168 h, read-out: IC50 ADA-M.
The subject of data set [3] is non-B HIV-1 primary clinical isolate #2. As to the kind of experiment: microbe, parasite or virus in culture. Conditions: Human immunodeficiency virus 1, PBMC, 168 h, read-out: IC50 Clinical isolate #2.
Data set [4] deals with HIV-1 IIIB. Description: microbe, parasite or virus in culture. Conditions: Human immunodeficiency virus 1, IIIB, PBMC, 168 h, read-out: IC50 IIIB.
For another data set, the system named is HIV-1. Description: microbe, parasite or virus in culture. The class given is cell-based. Conditions: for Anti-HIV activity: piceatannol analogues, pseudotype and MTT assay; for IC50: Human immunodeficiency virus 1, read-out: IC50 anti-HIV-1 activity. From the text: (§1) Since molecular details of piceatannol interaction with its target(s) are currently not available, we performed a structure-activity relationship (SAR) study with the aim to understand the chemical and pharmacophoric features of piceatannol that are relevant for its anti-HIV activity. Seventeen chemical analogues of piceatannol (molecules 1–17, Figure 6) were designed and retrieved from commercial vendors and from an in-house library of natural products and their derivatives and tested in vitro against HIV-1 entry and HIV-1 infection using the pseudotype and the MTT assay, respectively. […] Besides, the two flavones hispidulin 14 and norartocarpetin 15, and the two styrene derivatives 16 and methyl ferulate 17 were tested.

A short description of data set [5]: Cytotoxicity of piceatannol analogues.
From the text: as §1

Data set [6] has as its system HIV-1 gp120 / CD4 binding. Description: CD4-gp120 interaction assay (ELISA). As to conditions: in-house ELISA. The method, then: Human soluble CD4 (sCD4) was immobilized in a 96-well plate by adding 100 ng sCD4 (R&D Systems, Belgium) in 100 μL PBS per well and incubated at 4 °C. After 24 h, the CD4 coated plate was washed with 1% BSA-PBS and blocked by adding 100μL 5% BSA-PBS per well for 1 h at 4 °C. The coated plate was then washed and incubated with or without drugs for 1 h at 4 °C. After washing, 100 ng HIV-1 gp120 protein (Fitzgerald, Acton, MA, USA) was added into the plate and kept for 1 h at 4 °C. The plate was washed, and anti-HIV-1 gp120 (Aalto Bio Reagents, Dublin, Ireland) (100 ng/100 μL PBS) was added. After 1 h, the plate was washed and anti-sheep HRP (Sigma, Belgium) (100 ng/100 μL PBS) was added. After 1 h incubation at 4 °C, 100 μL o-phenylenediamine dihydrochloride (OPD) (Thermo Fisher, Asse, Belgium) was added and incubated for 20 min in dark. One hundred microliters 0.5M H2SO4 was finally added to stop the reaction. OD492 and OD630 were measured by POLARstart Omega Plate Reader. OD492 − OD630 was calculated.

Data set [7] relates to pseudotype virus pNL4.3ΔEnvLuc-HXB2. As to the kind of experiment: microbe, parasite or virus in culture. Conditions: Human immunodeficiency virus 1, HXB2, read-out: IC50 HIV-1 entry.
A further data set relates to HIV-1 fusion. Description: Fusion assay, HeLa-ENV-Lai with HeLa-P4-CXCR4-LTRLacZ cells. Type of data set: cell-based. As to conditions: Figure 8A. As for the experimental part: Fusion inhibition was evaluated as previously described. Briefly, HeLa-ENV-Lai cells were pre-incubated with or without drugs for 2 h and added to HeLa-P4-CXCR4-LTRLacZ cells which were placed in a 96-well plate 1 day before. After 24 h, cells were washed with PBS and then incubated with 50 μL containing 0.5% NP-40 (Sigma, Belgium) for 15 min at room temperature. Fifty microliters chlorophenol red-β-D-galactopyranoside (CPRG) reagent (Roche, Sigma-Aldrich, Liège, Belgium) was then added into the plate. After 30 min incubation at room temperature in dark, β−galactosidase was assessed by measuring OD562 of the cells via POLARstar Omega plate reader (BMG Labtech, Ortenberg, Germany).

Data set [8] deals with pseudotype virus pNL4.3ΔEnvLuc-HXB2. Conditions: multi-dosing time assay, 2 h after spinoculation (post-infection).
The target of the next data set is T1, CCR5 (Homo sapiens, UniProt P51681).
T1 construct: host or cells: U373-CD4-CCR5 cells
Description: Binding competition with anti-CCR5 antibody 2D7. As to conditions: anti-CCR5 antibody 2D7, U373-CD4-CCR5 cells. As for the experimental part:
Binding competition between increasing concentrations of compounds and FITC-conjugated mouse anti-human CD4 clone RPA-4 (Biolegend, Amsterdam, Netherlands), PE-conjugated mouse anti-Human CXCR4 clone 12G5, and PE-conjugated mouse anti-human CCR5 clone 2D7 (BD Pharma, Aalst, Belgium) to U373-CD4-CXCR4 and U373-CD4-CCR5 cells was first tested by flow cytometry (FACSCanto). […] After 1 h of incubation at 4 °C, cells were washed with FACS buffer (1% bovine serum albumin, 0.1% N3Na in PBS, Sigma), and Mean Fluorescence Intensity (MFI) was measured. […] Internalization was stopped after 30 min by addition of NaN3 (0.1%) on ice. Cells were stained with anti-human CXCR4 clone 4G10 (BD, Belgium) or anti-human CCR5 (CD195) clone T21/8, (eBioscience, Asse, Belgium), Near-IR fluorescent reactive dye during 1 h at 4 °C, washed with FACS buffer, and a secondary PE-conjugated goat anti-mouse antibody (Jackson ImmunoResearch, West Grove, PA, USA).

Data set [9] relates to HIV-1 IIIB. As to conditions: read-out: IC50 IIIB; PBMCs, 7 days, P24 ELISA. A general note: An ELISA detects its analyte on a solid surface through an enzyme-linked reagent.
Data set [10] deals with HIV-1 ADA-M. As to conditions: read-out: IC50 ADA-M; PBMCs, 7 days, P24 ELISA.
The subject of data set [11] is non-B HIV-1 primary clinical isolate #2. Conditions: non-B primary clinical isolate #2, 2 h.
For data set [12], the system named is non-B HIV-1 primary clinical isolate #1. As to conditions: non-B primary clinical isolate #1, 2 h.

T1 sequence (P51681 whole entry): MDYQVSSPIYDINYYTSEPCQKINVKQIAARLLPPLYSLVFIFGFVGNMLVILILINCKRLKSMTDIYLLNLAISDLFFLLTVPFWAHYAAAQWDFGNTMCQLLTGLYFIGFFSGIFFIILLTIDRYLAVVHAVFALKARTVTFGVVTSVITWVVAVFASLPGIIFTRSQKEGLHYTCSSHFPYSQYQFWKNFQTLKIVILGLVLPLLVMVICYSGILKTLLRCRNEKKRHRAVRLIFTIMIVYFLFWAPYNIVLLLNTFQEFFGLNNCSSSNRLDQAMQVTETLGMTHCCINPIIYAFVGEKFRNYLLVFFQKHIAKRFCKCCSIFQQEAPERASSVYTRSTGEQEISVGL

For orientation: IC50 means the midpoint of a concentration-inhibition curve. For `Cc1cn([C@H]2C[C@H](N=[N+]=[N-])[C@@H](CO)O2)c(=O)[nH]c1=O` [AZT, azidothymidine], the 50% inhibitory concentration (IC50) in data set [1] is 6.7 nM; in the data set with HIV-1 ADA-M [2], 7.31 nM; in data set [3] it was more than 1000 nM; with HIV-1 IIIB [4] it was 7.07 nM.

Consider `COc1cc(/C=C/c2ccc(O)cc2)cc(OC)c1` [Compound 1], for which the Anti-HIV activity result in the data set with HIV-1 was “inactive”.

For `CC(=O)Oc1ccc(/C=C/c2cc(OC(C)=O)cc(OC(C)=O)c2)cc1` [Compound 2], in the data set on HIV-1, the Anti-HIV activity entry was “inactive”.

`CC(C)=CCc1c(O)cc(O)c(CC=C(C)C)c1/C=C/c1ccccc1` [Compound 12]: the Anti-HIV activity result in the data set with HIV-1 was “inactive”.

As usually defined, the CC50 is the concentration at which the toxic effect on the cells reaches its halfway point. A high value points to better tolerance by the cells. Compound `O=c1cc(-c2ccc(O)cc2O)oc2cc(O)cc(O)c12` [Compound 15, norartocarpetin] came in with a CC50 in data set [5] of more than 500000 nM. Besides, in the data set with HIV-1, the IC50 came to 39000 ± 5000 nM.

For the compound `COC(=O)/C=C/c1ccc(O)c(OC)c1` [Compound 17, methyl ferulate], the IC50 in the data set with HIV-1 was 600000 ± 22000 nM.

With `O=C1Nc2ccc(Cl)cc2[C@@](C#CC2CC2)(C(F)(F)F)O1` [EFV, efavirenz], the IC50 is more than 10 nM in data set [1], 0.17 nM with HIV-1 ADA-M [2], more than 10 nM in [3] and 0.1 nM with HIV-1 IIIB [4].

Regarding `C[C@@]12OC(=O)C[C@@H]1[C@H]1Oc3c(c(O)cc(O)c3[C@@H]3c4ccc(O)cc4O[C@H](c4ccc(O)cc4)[C@H]3O)C[C@H]1O2` [cassiabrevone], the “Inhibition of gp120/CD4 binding” value in data set [6] is on record as “inhibited significantly gp120/CD4 binding activity in a dose-dependent manner”. Moreover, in data set [7], the IC50 is 31000 nM. In addition, the “Inhibition of viral fusion” value in the data set on HIV-1 fusion is given as “inhibited viral fusion similarly to CE”.

`Oc1ccc([C@H]2Oc3cc(O)ccc3[C@@H](c3c(O)cc(O)c4c3O[C@H](c3ccc(O)cc3)[C@H](O)C4)[C@@H]2O)cc1` [guibourtinidol-(4α→8)-epiafzelechin]: the “Inhibition of gp120/CD4 binding” value in data set [6] was “not guibourtinidol-(4α→8)-epiafzelechin”. Moreover, the IC50 in data set [7] came to 42500 nM. The “Inhibition of viral fusion” value with HIV-1 fusion is reported as “inhibited viral fusion similarly to CE”.

For the compound `CC1(C)CC[C@]2(C(=O)O)CC[C@]3(C)C(=CC[C@@H]4[C@@]5(C)CC[C@H](O)C(C)(C)[C@@H]5CC[C@]43C)[C@@H]2C1` [oleanolic acid], in [7], the 50% inhibitory concentration (IC50) was found to be 34900 ± 9090 nM.

On to `CCCCCCCCCCCCCCCC(=O)O` [palmitic acid], for which the half-inhibitory concentration (IC50) in [7] is 87500 ± 16100 nM.

For `Cc1nnc(C(=O)NC(C)(C)c2nc(C(=O)NCc3ccc(F)cc3)c(O)c(=O)n2C)o1` [raltegravir, reference compound], the “Inhibitory effect when added after infection” value in [8] was “inhibited HIV-1 infection”.

Turning to `O=C1c2c(O)cc(O)cc2OC(c2ccc(O)c(O)c2)C1O` (centres unmarked) [taxifolin], in data set [7], the IC50 came out at 240000 ± 3000 nM.

For “CCL5: chemokine C-C motif chemokine ligand 5, positive control for binding CCR5”, the “Inhibition of CCR5 binding” value in the data set with CCR5 was “inhibited”.

On to enfuvirtide, for which the IC50 amounted to 0.64 nM in the data set on HIV-1 IIIB [9], 0.67 nM in the data set on HIV-1 ADA-M [10], 1.93 nM in [11] and 8.25 nM in data set [12].
